Some test systems named below: BT-549 breast; CCRF-CEM leukemia; COLO 205 colon; IGROV1 ovarian; LOX IMVI melanoma; NCI-H226 lung; NCI-H460 lung; NCI-H522 lung; OVCAR-4 ovarian; U251 CNS.
Common to all, as to assay: growth of human tumour cells (NCI), 48 h

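These data come from cells grown in 96-well plates and exposed to compound for 48 hours at five concentrations. GI50 marks 50% less growth. Definition used: TGI = concentration required for complete inhibition of growth.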 A value given as a limit tells only on which side of the number the result lay.

As to `C[Se]C(=O)CC1=C2C=C(F)C=CC2/C(=C\c2ccc(S(C)=O)cc2)C1C` (centres undefined), the GI50 in the experiment with BT-549 breast is 58.1 nM; in the experiment with CCRF-CEM leukemia it was 208 nM; in the experiment on COLO 205 colon, 1250 nM; in the experiment with IGROV1 ovarian, 0.0972 µM; in the experiment on LOX IMVI melanoma, 14.1 nM; in the experiment on NCI-H226 lung, less than 16.4 nM. In addition, the GI50 was less than 0.01 µM with NCI-H460 lung, 404 nM in the experiment on NCI-H522 lung, 131 nM in the experiment on OVCAR-4 ovarian and less than 0.0181 µM with U251 CNS. For the same compound, the TGI in the experiment with BT-549 breast is 0.266 µM; in the experiment on CCRF-CEM leukemia, more than 20.6 µM; with COLO 205 colon it was 6.36 µM; in the experiment on IGROV1 ovarian, 3.17 µM; with LOX IMVI melanoma it was 0.0296 µM; with NCI-H226 lung, 0.317 µM. The TGI came out at 0.526 µM with NCI-H460 lung, 2920 nM in the experiment on NCI-H522 lung, 7.05 µM with OVCAR-4 ovarian and 1.43 µM with U251 CNS.

Regarding `N#Cc1nc(-c2ccccc2)oc1S(=O)(=O)N1CCOCC1`, the GI50 with BT-549 breast is 6670 nM; in the experiment with CCRF-CEM leukemia, 1730 nM; in the experiment with COLO 205 colon it was 2230 nM; in the experiment with IGROV1 ovarian, 8 µM; in the experiment on LOX IMVI melanoma, 1460 nM; in the experiment with NCI-H226 lung, 3670 nM. The GI50 in the experiment with NCI-H460 lung is 17.3 µM; in the experiment on NCI-H522 lung, 702 nM; in the experiment with OVCAR-4 ovarian it was 2730 nM; in the experiment with U251 CNS, 17.7 µM. Further, the TGI in the experiment with BT-549 breast came to 19.6 µM; in the experiment on CCRF-CEM leukemia it was 14.6 µM; in the experiment with COLO 205 colon, 4.91 µM; in the experiment with IGROV1 ovarian, 23.2 µM; with LOX IMVI melanoma it was 2.91 µM; in the experiment with NCI-H226 lung, 16.1 µM. Further, the TGI stood at 37.2 µM in the experiment with NCI-H460 lung, 3000 nM in the experiment with NCI-H522 lung, 9.2 µM in the experiment on OVCAR-4 ovarian and 42.2 µM with U251 CNS.

As to `CCSC1=CC(=O)c2ccccc2C1=O`, the GI50 in the experiment with BT-549 breast was 14800 nM; in the experiment with CCRF-CEM leukemia, 374 nM; with COLO 205 colon it was 2330 nM; in the experiment on IGROV1 ovarian, 4.86 µM; in the experiment on LOX IMVI melanoma it was 2550 nM; with NCI-H226 lung, 16800 nM. The GI50 with NCI-H460 lung was 20.5 µM; in the experiment with NCI-H522 lung, 821 nM; with OVCAR-4 ovarian it was 959 nM; in the experiment on U251 CNS it was 5.81 µM. Further, the TGI turned out to be 28.3 µM with BT-549 breast; 5.22 µM in the experiment with COLO 205 colon; 17.1 µM with IGROV1 ovarian; 8.89 µM in the experiment with LOX IMVI melanoma; 32.9 µM with NCI-H226 lung; 46.8 µM with NCI-H460 lung. The results for the TGI in the experiment with NCI-H522 lung, with OVCAR-4 ovarian and with U251 CNS were 2390 nM, 2.37 µM and 16.5 µM, respectively.

`COC(=O)CCC1=C(C)c2cc3[n-]c(cc4nc(cc5[n-]c(cc1n2)c(CCC(=O)OC)c5C)C=C4C)cc3C.[Cd+2]`: the GI50 was 925 nM with BT-549 breast; 3340 nM in the experiment on CCRF-CEM leukemia; 2640 nM in the experiment on COLO 205 colon; 3.03 µM with IGROV1 ovarian; 13100 nM in the experiment on LOX IMVI melanoma; 1520 nM in the experiment on NCI-H226 lung. Besides, the GI50 was 0.868 µM with NCI-H460 lung, 265 nM in the experiment with NCI-H522 lung, 2350 nM in the experiment on OVCAR-4 ovarian and 2.82 µM with U251 CNS. In addition, the TGI was 2.39 µM in the experiment with BT-549 breast; more than 56.4 µM in the experiment on CCRF-CEM leukemia; 6.9 µM in the experiment with COLO 205 colon; 8.82 µM with IGROV1 ovarian; more than 74.6 µM in the experiment on LOX IMVI melanoma; 4.73 µM in the experiment on NCI-H226 lung. Besides, the TGI in the experiment on NCI-H460 lung is 3.2 µM; in the experiment on NCI-H522 lung it was 754 nM; with OVCAR-4 ovarian, 7.14 µM; with U251 CNS, 9.98 µM.

On to `C[C@@H]1CC[C@@]2(OC1)O[C@H]1C[C@H]3[C@@H]4CC=C5C[C@@H](O[C@@H]6O[C@H](CO)[C@@H](O[C@@H]7O[C@@H](CO)[C@H](O)[C@H]7O)[C@H](O)[C@H]6O[C@@H]6O[C@@H](C)[C@H](O)[C@@H](O)[C@H]6O)CC[C@]5(C)[C@H]4CC[C@]3(C)[C@H]1[C@@H]2C`, for which the GI50 with BT-549 breast is 1500 nM; with CCRF-CEM leukemia, 1100 nM; in the experiment on COLO 205 colon it was 966 nM; in the experiment on IGROV1 ovarian it was 1.16 µM; in the experiment on LOX IMVI melanoma, 332 nM; in the experiment with NCI-H226 lung, 1330 nM. Moreover, the GI50 is 0.928 µM in the experiment on NCI-H460 lung, 1670 nM with NCI-H522 lung, 1360 nM in the experiment with OVCAR-4 ovarian and 1.01 µM with U251 CNS. Also, the TGI in the experiment with BT-549 breast stood at 2.94 µM; with CCRF-CEM leukemia, 2.6 µM; with COLO 205 colon, 2.17 µM; with IGROV1 ovarian it was 2.38 µM; in the experiment with LOX IMVI melanoma, 1.19 µM; with NCI-H226 lung, 3.07 µM. Further, the TGI turned out to be 2.29 µM with NCI-H460 lung, 3230 nM in the experiment with NCI-H522 lung, 2.71 µM in the experiment with OVCAR-4 ovarian and 2.17 µM in the experiment on U251 CNS.

On to `C=C1C(C)C2C(Cc3ccccc3)NC(=O)C23C(OC(C)=O)/C=C/C(C)(O)CC(C)C/C=C/C3C1O` (centres undefined), for which the TGI with BT-549 breast is more than 47.3 µM; in the experiment on CCRF-CEM leukemia, 85 µM; with COLO 205 colon, more than 100 µM; with IGROV1 ovarian, 48.2 µM; in the experiment on LOX IMVI melanoma, 19.2 µM; in the experiment on NCI-H226 lung, 42.3 µM. In addition, the TGI in the experiment with NCI-H460 lung is more than 95.2 µM; in the experiment with NCI-H522 lung, 45100 nM; with OVCAR-4 ovarian, 82.9 µM; in the experiment on U251 CNS, 18.4 µM.

As for `O=Cc1coc2ccccc2c1=O`, the TGI came out at 36.8 µM with BT-549 breast; 69.7 µM in the experiment on CCRF-CEM leukemia; 30.4 µM in the experiment on COLO 205 colon; 41.4 µM in the experiment on IGROV1 ovarian; 37.1 µM in the experiment with LOX IMVI melanoma; 84.4 µM in the experiment with NCI-H226 lung. Further, the TGI in the experiment on NCI-H460 lung worked out at 50.9 µM; with NCI-H522 lung, 48100 nM; in the experiment on OVCAR-4 ovarian, 43.8 µM; with U251 CNS it was 65.2 µM.

For `CCCC[C@@H](COC(=O)N(Cc1cccs1)Cc1cccs1)NC(=O)N[C@@H](CC(=O)OC)c1ccc2c(c1)OCO2`, the GI50 in the experiment with BT-549 breast was more than 100000 nM; in the experiment on CCRF-CEM leukemia, more than 100000 nM; in the experiment on COLO 205 colon, more than 100000 nM; in the experiment on IGROV1 ovarian, more than 100 µM; with LOX IMVI melanoma, more than 100000 nM; in the experiment on NCI-H226 lung it was more than 100000 nM. Moreover, the GI50 was more than 100 µM in the experiment with NCI-H460 lung, more than 100000 nM in the experiment with NCI-H522 lung, more than 100000 nM with OVCAR-4 ovarian and more than 100 µM in the experiment on U251 CNS. The TGI in the experiment with BT-549 breast, in the experiment with CCRF-CEM leukemia, in the experiment with COLO 205 colon, in the experiment with IGROV1 ovarian, with LOX IMVI melanoma and in the experiment with NCI-H226 lung was more than 100 µM in each case. Further, the TGI in the experiment with NCI-H460 lung is more than 100 µM; in the experiment with NCI-H522 lung it was more than 100000 nM; in the experiment with OVCAR-4 ovarian, more than 100 µM; with U251 CNS it was more than 100 µM.

For the origin of these results see PubChem BioAssay (NCI).
